Consider one compound from ChEMBL document CHEMBL2169878 (J Med Chem, 2012).

The test system of series [1] is Heart. Kind of series: Cardiotoxicity against Sprague-Dawley rat Langendorff perfused heart assessed as heart rate at 10 uM by electrophysiological analysis (reference value: 236.68 7.83 bpm). Format: toxicity, tissue-based.
For series [2], the system named is Heart. Briefly: Cardiotoxicity against Sprague-Dawley rat Langendorff perfused heart assessed as cycle length time at 10 uM by electrophysiological analysis (reference value: 258.62 8.87 ms). Format: toxicity, tissue-based.
Series [3] relates to Salmonella typhimurium. Briefly: Mutagenicity against Salmonella typhimurium TA100 assessed as revertants at 48 uM incubated for 90 mins followed by drug washout measured after 2 days relative to positive control. Format: toxicity, organism-based. The settings on record: salmonella enterica subsp. enterica serovar typhimurium.
Series [4] relates to Heart. Kind of series: Cardiotoxicity against Sprague-Dawley rat Langendorff perfused heart assessed as cycle length time at 1 uM by electrophysiological analysis (reference value: 258.62 8.87 ms). Format: toxicity, tissue-based.
Series [5] relates to Plasmodium berghei. Kind of series: Antimalarial activity against Plasmodium berghei ANKA expressing GFP infected in mouse assessed as mean survival days at 30 mg/kg, po administered QD for 3 days (reference value: 6 to 7 days). It is filed as functional.
Series [6] is described as follows: Clearance in CD1 albino mouse at 50 mg/kg, po. Format: ADME, organism-based. Further details: dose 50 mg/kg, route oral. To be noted: in vivo.
Series [7] concerns the target Chloroquine resistance transporter (Plasmodium falciparum, UniProt Q9N623). Kind of series: Inhibition of chloroquine-resistant Plasmodium falciparum Dd2 CRT expressed in Xenopus laevis oocyte assessed as inhibition of [3H]chloroquine uptake measured from 1 to 2 hrs.
The subject of series [8] is Heart. Briefly: Cardiotoxicity against Sprague-Dawley rat Langendorff perfused heart assessed as QTc time interval at 30 uM by electrophysiological analysis (reference value: 145.78 10.53 ms). Format: toxicity, tissue-based.

Chain of Chloroquine resistance transporter (Q9N623 whole entry, looked up, the tested form may be a part): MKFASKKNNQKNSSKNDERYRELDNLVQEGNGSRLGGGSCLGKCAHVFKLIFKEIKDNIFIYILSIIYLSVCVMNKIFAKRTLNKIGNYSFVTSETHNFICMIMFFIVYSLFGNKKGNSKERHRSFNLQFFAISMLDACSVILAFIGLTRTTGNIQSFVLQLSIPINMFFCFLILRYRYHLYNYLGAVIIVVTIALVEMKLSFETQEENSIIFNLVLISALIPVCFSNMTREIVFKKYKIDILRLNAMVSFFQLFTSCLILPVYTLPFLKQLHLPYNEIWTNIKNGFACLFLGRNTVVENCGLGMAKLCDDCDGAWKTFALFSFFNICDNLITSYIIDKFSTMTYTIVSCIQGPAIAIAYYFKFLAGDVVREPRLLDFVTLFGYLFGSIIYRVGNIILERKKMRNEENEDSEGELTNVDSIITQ

In the case of `Clc1ccc(C(Nc2ccnc3cc(Cl)ccc23)c2ccc(CN3CCNCC3)cc2)cc1` (racemic), the Activity in series [1] is listed as 216.05 bpm; in series [3], 28%. Also, the Time was determined as 294 ms in series [2], 260.13 ms in series [4] and 168.83 ms in series [8]. In addition, the MSD in series [5] stood at 29 days. Further, the CL/F in series [6] amounted to 82 mL/min/kg. The IC50 in series [7] came out at 10.3 µM.

In general, CL/F refers to the apparent clearance, not corrected for the fraction that reaches the circulation. In general, IC50 refers to the concentration that inhibits the measured activity by half.
